MIC data for 42 molecules are collected here from ChEMBL document CHEMBL5126535, “Quinoline heterocyclic containing plant and marine candidates against drug-resistant Mycobacterium tuberculosis: A systematic drug-ability investigation” (Eur J Med Chem, 2022).

Values after ≈ are worked out from the molar mass of the structure shown. Some results are limits rather than exact numbers.

One assay deals with Mycobacterium tuberculosis. Briefly: Antibacterial activity against Mycobacterium tuberculosis. Type of assay: functional, organism-based.
Settings: not given
With `O=C1c2c(O)ccnc2-c2nccc3c2c1nc1ccccc13`, the minimum inhibitory concentration (MIC) is > 12.6 µg/mL.
`CC(=O)NCCc1c2c(c3nccc4c3c1Nc1ccccc1-4)OCS2` [LISSOCLINIDINE] had an MIC of 6.18 µg/mL (≈ 17 µM).
Same read-out and setting: the result for `CC(=O)NCCc1c2c(c3nccc4c3c1Nc1ccccc1-4)NC(=O)CS2` [SHERMILAMINE B] reads 12.5 µg/mL (≈ 32 µM).
On the same count and under the same terms, the result for `CSc1cnc2c3c(nc4ccccc4c13)C(CCNC(C)=O)=CC2=O` [ISODIPLAMINE] reads 6.18 µg/mL (≈ 17 µM); that for `O=C1c2scnc2-c2nccc3c2c1nc1ccccc13` [KUANONIAMINE A], 3.1 µg/mL (≈ 10.7 µM).
Molecule `COc1cc2c(cc1OC)-c1cc(CC(C)=O)c3cc4c(cc3c1N(C)C2)OCO4` had an MIC of 6.25 µg/mL (≈ 15.4 µM).
On the same count and under the same terms, the result for `COc1cc2c(cc1O)CCNC21C[S+]([O-])C2c3c(OC(C)=O)c(C)c4c(c3C(COC1=O)N1C(C#N)C3CC5CC(C)C(OC)C(O)C5C(C21)N3C)OCO4` (stereo not drawn) reads 1.6 µg/mL (≈ 2.02 µM).
Still for that read-out and setting: the result for `CC(=O)NCCc1c2c3c(ccnc3c3ncsc13)-c1ccccc1N2` [KUANONIAMINE D] reads 12.2 µg/mL (≈ 34 µM); that for `O=C1c2cccnc2-c2nccc3c2c1nc1ccccc13` [ASCIDIDEMIN], 0.01 µg/mL (≈ 0.0353 µM).
Same read-out and setting: the result for `OC12C=C(c3nccc4c3[nH]c3ccccc34)C3CCN(CCCC/C=C\CC1)CC31CC34CCC(CCCN3C21)O4` (stereo not drawn) reads 1.77 µg/mL (≈ 3.13 µM).
The molecule `COc1ccc2c(c[n+](C)c3c4cc5c(cc4ccc23)OCO5)c1OC` [CHELERYTHRINE] returned an MIC of 3.1 µg/mL.
Same read-out and setting: the result for `CSC1=C(CCNC(C)=O)c2nc3ccccc3c3ccnc(c23)C1=O` [DIPLAMINE] reads 6.18 µg/mL (≈ 17 µM); that for `On1ccc2c3ccccc3nc-2c1C1=CC2(O)CCC/C=C\CCCN3CCC1C1(CC4/C=C\CCCCN4C21)C3` (stereo not drawn), 3.9 µg/mL (≈ 6.91 µM).

Another assay concerns Mycolicibacterium smegmatis. Briefly: Antibacterial activity against Mycobacterium smegmatis measured after 72 hrs.
Settings: not given
Type of assay: functional.
For the molecule `C[n+]1cc2c3c(ccc2c2ccc4cc5c(cc4c21)OCO5)OCO3` [SANGUINARIUM], it took 24.5 µg/mL to inhibit growth (MIC).

In the next assay the test system is Mycolicibacterium aurum. Briefly: Antibacterial activity against Mycobacterium aurum measured after 72 hrs.
Settings: not given
The assay is classed as functional.
For the molecule `C[n+]1cc2c3c(ccc2c2ccc4cc5c(cc4c21)OCO5)OCO3` [SANGUINARIUM], the MIC came out at 24.5 µg/mL.

Another assay relates to Mycobacterium tuberculosis. Briefly: Antibacterial activity against Mycobacterium tuberculosis measured after 14 days. Type of assay: functional. The note with it: 336 h, time 14 day.
`COc1ccc2cc1-c1cc(ccc1O)CC1c3cc4c(cc3CCN1C)Oc1c(OC)cc3c(c1O4)C(C2)N(C)CC3` (stereo not drawn) had an MIC of 3.1 µg/mL (≈ 5.38 µM).
The same measure, in the same setting: the result for `COc1ccc2c(c1)c(-c1c3c4c(cc5c(c4c4ccc(OC)cc14)OCO5)CCN3)c1c3c(cc4c(c32)OCO4)CCN1` [BIDEBILINE E] reads 6.25 µg/mL (≈ 10.7 µM); that for `Cn1c(=O)ccc2ccccc21`, 25 µg/mL (≈ 157 µM); that for `COc1cc(CCc2ccc3c(c2)OCO3)nc2ccccc12` [CUSPARINE], 6.25 µg/mL (≈ 20.3 µM).
Molecule `COc1ccc(CCc2cc(OC)c3ccccc3n2)cc1OC` showed a minimum inhibitory concentration (MIC) of 6.25 µg/mL (≈ 19.3 µM).
On the same count and under the same terms, next, `CN1c2ccccc2CCC1CCc1ccc2c(c1)OCO2` (stereo not drawn): 6.25 µg/mL (≈ 21.2 µM); `COc1ccc2cc1Oc1ccc(cc1)CC1NCCc3cc(OC)c(cc31)Oc1c(OC)c(OC)cc3c1C(C2)N(C)CC3` (stereo not drawn): 0.25 µg/mL (≈ 0.411 µM); `COC(=O)C1=C2Nc3ccccc3C23CCN2C(O)C4(CC5CC67CC(=O)OC6CCN6CCC8(c9cccc(OC)c9N(C4)C58)C67)C4OCCC4(C1)C23` (stereo not drawn): 4 µg/mL (≈ 5.46 µM).
In turn, `CCCCCc1cc(OC)c2ccccc2n1` came in with an MIC of 6.25 µg/mL (≈ 27.3 µM).
Same read-out and setting: next, `COc1ccc2cc1-c1cc(ccc1O)CC1NCCc3cc4c(cc31)Oc1c(c(OC)cc3c1C(C2)N(C)CC3)O4` (stereo not drawn): 3.1 µg/mL (≈ 5.51 µM); `COc1ccc(CCC2CCc3ccccc3N2C)cc1OC` (stereo not drawn): 6 µg/mL (≈ 19.3 µM).

A further assay concerns Mycobacterium tuberculosis. Briefly: Antibacterial activity against Mycobacterium tuberculosis H37Rv ATCC 27294 incubated for 6 weeks by MGIT assay. The note with it: H37Rv ATCC 27294, 1008 h. The assay is classed as functional.
In the case of `COc1ccc2c3c(c4cc(OC)c(OC)cc4c2c1)CN1CCC[C@H]1C3`, the minimal inhibitory concentration (MIC) was found to be 12.5 µg/mL (≈ 34.4 µM).

For a further assay, the system named is Mycolicibacterium fortuitum. Briefly: Antibacterial activity against Mycobacterium fortuitum measured after 72 hrs by 96-well microtitre plate assay. Type of assay: functional.
Settings: not given
With `C[n+]1c2ccccc2cc2[n-]c3ccccc3c21` [CRYPTOLEPINE], the minimal inhibitory concentration (MIC) stood at 16 µg/mL (≈ 68.9 µM).

A further assay concerns Mycobacterium tuberculosis. Briefly: Antibacterial activity against Mycobacterium tuberculosis H37Ra ATCC 25177 assessed as no visible mycobacterial growth incubated for 7 to 8 days by light microscope based spectrophotometric analysis. The assay is classed as functional. The note with it: time 7-8 day.
`COc1c(O)ccc2c1cnc1c3cc4c(cc3ccc21)OCO4` [DECARINE]: the MIC stood at 3.1 µg/mL (≈ 9.71 µM).

The subject of another assay is Mycolicibacterium fortuitum. Briefly: Antibacterial activity against Mycobacterium fortuitum ATCC 6841 measured after 24 hrs. The assay is classed as functional.
Settings: not given
Turning to `Cn1c2c3ccccc3nc-2c(-c2c3nc4ccccc4c-3n(C)c3ccccc23)c2ccccc21` [BISCRYPTOLEPINE], the MIC is 6.25 µg/mL (≈ 13.5 µM).
The molecule `Cn1c2nc3ccccc3c-2cc2ccccc21` [NEOCRYPTOLEPINE] yielded an MIC of 31 µg/mL (≈ 133 µM).

Another assay relates to Mycobacterium tuberculosis. Briefly: Antibacterial activity against Mycobacterium tuberculosis H37Rv ATCC 27294 by broth microdilution based microplate Alamar blue staining method. The assay is classed as functional.
Settings: not given
For `CC(=O)C[C@H]1CC2C(C3c4[nH]c5ccccc5c4CCN31)C(O)C13CC/C=C\CCCCN1CC21CC/C=C\CCCCNC13` (stereo partly drawn), the minimal inhibitory concentration (MIC) stood at 1.57 µg/mL (≈ 2.57 µM).
`CC(=O)C[C@@H]1CC2C(C3c4[nH]c5ccccc5c4CCN31)C(O)C13CC/C=C\CCCCN1CC21CC/C=C\CCCCNC13` (stereo partly drawn) showed an MIC of 1.9 µg/mL (≈ 3.11 µM).

The next assay relates to Mycobacterium tuberculosis. Briefly: Antibacterial activity against Mycobacterium tuberculosis H37Ra by MABA method. The assay is classed as functional.
Settings: not given
In general terms: Alamar Blue is a resazurin reagent that responds to reducing activity.
For the molecule `COc1cccc2c1C(=O)c1nccc3cc4c(c-2c13)OCO4` [OXOSTEPHANINE], it took 25 µg/mL (≈ 81.9 µM) to inhibit growth (MIC).

The next assay relates to Mycobacterium tuberculosis. Briefly: Antibacterial activity against Mycobacterium tuberculosis incubated for 5 days by Alamar blue staining method. The assay is classed as functional. The note with it: 120 h, time 5 day.
In turn, `COc1ccc2c(c1OC)C(OC)N(C)c1c-2ccc2cc3c(cc12)OCO3` (stereo not drawn) came in with a minimal inhibitory concentration (MIC) of 12.5 µg/mL (≈ 32.9 µM).
Consider `COc1cc2c[n+](C)c3c4cc5c(cc4ccc3c2cc1OC)OCO5` [NITIDINE], for which the minimal inhibitory concentration (MIC) worked out at 12.5 µg/mL.
The same measure, in the same setting: next, `COc1cc2c3c(OC)cc4c(c3c[n+](C)c2c2cc3c(cc12)OCO3)OCO4`: 12.5 µg/mL; `COc1cc(-c2ccccc2)nc2ccccc12`: 6.25 µg/mL (≈ 26.6 µM); `COc1cc2c(c3c1-c1ccc4cc5c(cc4c1N(C)C3OC)OCO5)OCO2` (stereo not drawn): 25 µg/mL (≈ 63.5 µM).
Molecule `COc1cc2c(c3c[n+](C)c4c5cc6c(cc5ccc4c13)OCO6)OCO2` came in with an MIC of 12.5 µg/mL.
The same measure, in the same setting: next, `Cc1ccnc2c1C(=O)c1ccccc1C2=O` [CLEISTOPHOLINE]: 12.5 µg/mL (≈ 56 µM).

The next assay deals with Mycobacterium tuberculosis. Briefly: Antibacterial activity against Mycobacterium tuberculosis H37Rv ATCC 27294 incubated for 5 days by Alamar blue staining method. The assay is classed as functional. The note with it: H37Rv ATCC 27294, 120 h, time 5 day.
As for `COc1cc2c(cc1OC)-c1c3c(cc4ccnc(c14)C2=O)OCO3` [DICENTRINONE], the MIC worked out at 50 µg/mL (≈ 149 µM).

For a further assay, the system named is Mycobacterium tuberculosis. Briefly: Antibacterial activity against Mycobacterium tuberculosis H37Ra assessed as inhibition of bacterial growth incubated for 72 hrs by microbroth dilution method. Type of assay: functional.
Settings: not given
As to `CCCC/C=C\CCCCCCCc1cc(=O)c2ccccc2n1C`, the minimal inhibitory concentration (MIC) was determined as 5 µg/mL (≈ 14.7 µM).

As usually defined, the MIC is the smallest concentration in the dilution series that meets the test's criterion for growth inhibition.
